# From US6204284A, “Use of 1-(substitutedphenyl)-3-azabicyclo[3.1.0]hexanes for the treatment of chemical dependencies” (priority 1995, dated 2001)
# Values joined by “and” are separate entries in the source; they are usually repeats but may differ in a detail not shown here. Equal entries are not always repeated. “Also recorded” adds a separate entry of the source.
# Experiments:
# Male Wistar rats = assay: Free-choice ethanol (6% v/v) vs tap water drinking, Part I; assay type: in vivo, rat; conditions: for Ethanol Intake / Ethanol Preference / Food Consumption / Total Fluid Intake: mean ± S.D.
# Description: Male Wistar rats are presented with an everyday free-choice between a 6% (v/v) ethanol solution and tap water. Following a seven-day baseline period, which establishes a pattern of stable drinking, only those animals whose consumption is greater than 50% of their total fluid intake are given intraperitoneal injections of three drugs. In part I citalopram (positive control) a neuronal serotonin uptake inhibitor at a dose of 30 mg/kg, […], and 1-(3,4-dichlorophenyl)-3-azabicyclo[3.1.0]hexane hydrochloride, also a serotonin uptake inhibitor, at doses of 5, 10 and 20 mg/kg are given by intraperitoneal injection for seven days. In part II, animals are given intraperitoneal injections of diazepam at a dose of 10 mg/kg and again the positive control used is citalopram at 30 mg/kg. Treatment period for part II also is over a seven-day period. Following the seven-day treatment period, a post-treatment period which lasted for an additional seven days is conducted where the animals are presented with a free choice between ethanol and water in order to determine the rate of recovery of ethanol drinking. During baseline, drug treatment and post-treatment periods, ethanol consumption by the rats is calculated in terms of daily ethanol preference ratio (volume of ethanol per volume of total daily fluid intake) and in terms of daily absolute of ethanol ingested (g/kg body weight).
# Two hundred (200) drug-naive male Wistar rats obtained from the Canadian Breeding Farm Laboratories in Charles River Canada are used. All animals weigh between 180-200 g at the beginning of the experiment.
# All animals are individually housed in stainless steel cages, in a room regulated for constant temperature, humidity and a 12-hour light/dark cycle (7:00 a.m.-7:00 p.m.). Each cage is equipped with two calibrated glass Richter tubes to deliver the fluids (ethanol and water) to the animals. All animals are presented with a free choice between ethanol and tap water throughout the experiment. The drinking vessels are randomly reversed in order to avoid bias generated by a position preference in the animals. In addition, Purina Rat Chow is made available throughout the experiment on an ad libitum basis.
# At approximately the same time every day, 1300 h, the volume in mls of ethanol and tap water consumed by each animal is recorded. All tubes are then removed from the cages, rinsed and refilled with the appropriate fluids, i.e., ethanol solution and tap water. Also, all animals are weighed and their corresponding body weights recorded. At this time, additional food is provided.
# Drugs used in part I are dissolved in Ringers solution to form the required doses. Drugs used in part II are suspended in a vehicle which consists of a 2% pre-boiled starch solution containing 5% polyethylene glycol 400 and tween 80 (1 drop/10 ml vehicle). All drugs are administered intraperitoneally according to the schedule (see Treatment period).
# Group 2--citalopram 30 mg/kg (n=10)
# Group 3--1-(3,4-dichlorophenyl)-3-azabicyclo[3.1.0]hexane hydrochloride 5 mg/kg (n=10)
# Group 4--1-(3,4-dichlorophenyl)-3-azabicyclo[3.1.0]hexane hydrochloride 10 mg/kg (n=10)
# Group 5--1-(3,4-dichlorophenyl)-3-azabicyclo[3.1.0]hexane hydrochloride 20 mg/kg (n=10)
# Post-treatment period:--Upon cessation of the drug treatment period, the animals are presented with a free choice between 6% ethanol and tap water for an additional 7 days in order to determine the rate of recovery of ethanol drinking.
# [1] = tested on: Norepinephrine (NE) reuptake in rat brain synaptosomes; assay: Inhibition of rat synaptosomal uptake of 3H-norepinephrine; assay type: biochemical; conditions: rat diencephalic-mid brain crude synaptosomes; 3H-NE 2×10^-8 M; Hill analysis
# Text: (§1) Male Wistar rats weighing approximately 180-200 g are decapitated and their brains rapidly removed and dissected according to the method of Glowinski and Iversen. Glowinski, J. and Iversen, L. L., Regional studies of catecholamines in the rat brain I. The disposition of 3H-norepinephrine, 3H-dopamine and 3H-DOPA in various regions of the brain. J. Neurochem. 13:655-669, 1966.
# (§2) Striatal tissues are pooled from three rat brains for the uptake of 3H-dopamine (3H-DA) and diencephalic-mid brain areas were used for the uptake of 3H-norepinephrine (3H-NE) and 3H-serotonin (3H-5HT). The tissues are immediately weighed and homogenized with a teflon-glass pestle homogenizer in 10 volumes of ice cold 0.32 M sucrose. The homogenates are centrifuged at 4° C. at 900×g for 10 minutes to remove nuclear particles and cellular debris. The supernatants are carefully withdrawn and transferred into clean test tubes kept in ice. Aliquots of these preparations containing crude synaptic nerve endings are used in subsequent uptake studies.
# (§3) Amine uptake in crude synaptosomes is determined by a method essentially the same as that described by Snyder and Coyle, Snyder, S. H. and Coyle, J. T. Regional differences in 3H-norepinephrine and 3H-dopamine uptake into rat brain homogenates. J. Pharmacol. Exp. Ther. 165:78-86, 1969. Briefly, a 0.1 ml aliquot of the above tissue preparation is added to test tubes containing 3.7 ml of Krebs-Ringer phosphate buffer pH 7.4 with glucose (2 mg/ml), calcium chloride 0.024%, ascorbic acid (0.2 mg/ml) and nialamide (1.24×10^-5M). 1-(3,4-Dichlorophenyl)-3-azabicyclo[3.1.0]hexane hydrochloride at varying concentrations (0.01-2.5 μM) is added in a 0.1 ml volume. The incubation mixtures are agitated at 37° C. for 10 minutes under an atmosphere of 95% oxygen and 5% CO2 in a Dubnoff metabolic shaker to ensure irreversible inhibition of monoamine oxidase (MAO). After this initial pre-incubation period, the tubes are returned to the ice bath. 3H-DA, 3H-NE or 3H-5HT is added in a 0.1 ml volume to give a final concentration of labeled amine of 2×10^-8 M, and the incubation at 37° C. is continued for an additional 4 min. A set of tubes serving as control (uptake at 0° C.) is left in an ice bath. After the final incubation period, the samples are cooled in ice and then centrifuged at 4° C. at 10,000×g. The supernatant fluid is gently poured off from each tube. The surface of the pellet of each sample is washed with 5 ml of ice cold 0.9% sodium chloride which is then aspirated off without disturbing the pellet. The pellet is resuspended in a cintillation fluid ad radioactivity was determined. Protein content in the tissue samples is determined by the method of Lowry et al. Lowry, O. H., Rosebrough, N. J., Farr, A. L. and Randall, R. J. Protein measurement with the folin reagent. J. Biol. Chem. 193:265, 1951. The concentration of drug which inhibits the uptake of the labeled amine by 50% is determined by Hill analysis of the data.
# [2] = tested on: Serotonin (5-HT) reuptake in rat brain synaptosomes; assay: Inhibition of rat synaptosomal uptake of 3H-serotonin; assay type: biochemical; conditions: rat diencephalic-mid brain crude synaptosomes; 3H-5HT 2×10^-8 M; Hill analysis
# Text: as §1, §2, §3
# [3] = tested on: Dopamine (DA) reuptake in rat brain synaptosomes; assay: Inhibition of rat synaptosomal uptake of 3H-dopamine; assay type: biochemical; conditions: rat striatal crude synaptosomes; 3H-DA 2×10^-8 M; Hill analysis
# Text: as §1
# Striatal tissues are pooled from three rat brains for the uptake of 3H-dopamine (3H-DA) and diencephalic-mid brain areas were used for the uptake of 3H-norepinephrine (3H-NE) and 3H-serotonin (3H-5HT). The tissues are immediately weighed and homogenized with a teflon-glass pestle homogenizer in 10 volumes of ice cold 0.32 M sucrose. […]
# Amine uptake in crude synaptosomes is determined by a method essentially the same as that described by Snyder and Coyle, Snyder, S. H. and Coyle, J. T. Regional differences in 3H-norepinephrine and 3H-dopamine uptake into rat brain homogenates. […] The pellet is resuspended in a cintillation fluid ad radioactivity was determined. Protein content in the tissue samples is determined by the method of Lowry et al. Lowry, O. H., Rosebrough, N. J., Farr, A. L. and Randall, R. J. Protein measurement with the folin reagent. […] The concentration of drug which inhibits the uptake of the labeled amine by 50% is determined by Hill analysis of the data.
# [4] = 5 mg/kg i.p. 7 days, Baseline period
# [5] = 5 mg/kg i.p. 7 days, Post-Treatment period
# [6] = 10 mg/kg i.p. 7 days, Baseline period
# [7] = 10 mg/kg i.p. 7 days, Post-Treatment period
# [8] = 20 mg/kg i.p. 7 days, Baseline period
# [9] = 20 mg/kg i.p. 7 days, Baseline period, hydrochloride, 20 mg/kg
# [10] = 20 mg/kg i.p. 7 days, Post-Treatment period
# [11] = 20 mg/kg i.p. 7 days, Post-Treatment period, hydrochloride, 20 mg/kg
structure (smiles),measurement,setting,value
"Cl.Clc1ccc(C23CNCC2C3)cc1Cl (centres unmarked) [1-(3,4-dichlorophenyl)-3-azabicyclo[3.1.0]hexane hydrochloride]",Ethanol Intake,Male Wistar rats; [4],5.02 ± 1.16 g/kg body weight
same,Ethanol Preference,Male Wistar rats; [4],83.67 ± 14.58%
same,Food Consumption,Male Wistar rats; [4],19.74 ± 1.65 g/day
same,Total Fluid Intake,Male Wistar rats; [4],124.65 ± 12.61 mL/kg/day
same,Ethanol Intake,Male Wistar rats; [5],4.86 ± 1.78 g/kg body weight
same,Ethanol Preference,Male Wistar rats; [5],82.39 ± 20.87%
same,Food Consumption,Male Wistar rats; [5],19.50 ± 1.41 g/day
same,Total Fluid Intake,Male Wistar rats; [5],120.60 ± 21.86 mL/kg/day
same,Ethanol Intake,Male Wistar rats; [6],4.55 ± 0.90 g/kg body weight
same,Ethanol Preference,Male Wistar rats; [6],75.05 ± 16.53%
same,Food Consumption,Male Wistar rats; [6],20.43 ± 1.55 g/day
same,Total Fluid Intake,Male Wistar rats; [6],127.90 ± 15.88 mL/kg/day
same,Ethanol Intake,Male Wistar rats; [7],2.99 ± 1.42 g/kg body weight
same,Ethanol Preference,Male Wistar rats; [7],55.90 ± 28.51%
same,Food Consumption,Male Wistar rats; [7],21.32 ± 1.96 g/day
same,Total Fluid Intake,Male Wistar rats; [7],115.41 ± 15.56 mL/kg/day
same,Food Consumption,Male Wistar rats; [8],20.28 ± 1.12 g/day
same,Total Fluid Intake,Male Wistar rats; [8],116.16 ± 10.33 mL/kg/day
same,Ethanol Intake,Male Wistar rats; [9],3.79 g/kg body weight and 3.80 ± 1.00 g/kg body weight
same,Ethanol Preference,Male Wistar rats; [9],67.94% and 67.94 ± 17.05%
same,Food Consumption,Male Wistar rats; [10],20.88 ± 2.08 g/day
same,Total Fluid Intake,Male Wistar rats; [10],107.22 ± 11.96 mL/kg/day
same,Ethanol Intake,Male Wistar rats; [11],3.04 g/kg body weight and 3.04 ± 1.34 g/kg body weight
same,Ethanol Preference,Male Wistar rats; [11],58.66% and 58.66 ± 23.98%
same,Ethanol Preference,"Male Wistar rats; 20 mg/kg i.p. 7 days, Treatment period, hydrochloride, 20 mg/kg",25.55% and 25.55 ± 17.28%
same,Voluntary ethanol consumption (overall statement),"Male Wistar rats; rats, 5, 10 and 20 mg/kg i.p. 7 days, hydrochloride",reduces ethanol intake and ethanol preferences; also recorded: significant effect in attenuating voluntary ethanol consumption
